In data set [1] the test system is pathogen related decay (spoilage) of fruits (pears, strawberries and mandarins). In words: decay of fruits exposed to pentanal and stored. Format: in vivo. The following applies: 10 to 30 ppm pentanal; stored in a cold room and/or at 20° C. As to the method: Furthermore, various fruits (e.g. pears, strawberries and mandarins) have been exposed to between 10 and 30 ppm of pentanal (e.g. in a form of vapors, or by contacting thereof with an appropriate amount of any one of the composition of the invention). Upon exposure, the treated fruits have been stored for different time periods (in a cold room and/or at 20° C.). Subsequently, the decay of treated fruits has been examined and compared to untreated fruits.

For data set [2], the system named is Penicillium expansum. The experiment in a line: electron microscopy of mycelium and spores treated with pentanal. Format: cell-based. As to conditions: pentanal treated vs untreated. On the procedure: FIGS. 2A-2C are micrographs presenting the effect of pentanal vapors (lower panel) on the mycelium (2A), conidia (2B), and spores (2C) of Penicillium expansum, as compared to untreated counterparts (upper panel). White arrows represent damage of Penicillium expansum upon exposure to pentanal vapors. Mycelium and spores of Penicillium expansum treated and untreated with pentanal were analyzed using electronic microscope. Untreated mycelium and the spores of Penicillium expansum developed normally (FIG. 2, upper panel) while the Pentanal treated samples were impaired, the round structure of the mycelium was altered and along the mycelium damaged sites were observed (FIG. 2A). The conjugation sites of the spores in conidiophore were also damaged (FIG. 2B), and ruptures were visible on the spores' surface (FIG. 2C).

For data set [3], the system named is Botrytis cinerea. The experiment in a line: Petri dish with PDA inoculated with fungi spores exposed to pentanal vapors. Format: cell-based. The following applies: pentanal vapors about 18 ppm; vs untreated plates. The source says:
(§1) FIGS. 1A-1C are images representing inhibition of various plant pathogens Alternaria alternata (1A), Botrytis cinerea (1B), and Penicillium expansum (1C) by pentanal vapors at a concentration of 18 ppm. The inventors tested anti-fungal efficiency of pentanal vapors by exposing various fruits pathogens (e.g., Alternaria, Botrytis, and Penicillium species) to pentanal vapors at a concentration of about 18 ppm. Fruit (in vivo) or Petri dish with PDA (in vitro) inoculated with fungi spores (10^3-10^6 spores/ml) were exposed to pentanal vapors at concentrations of 10-100 ppm for 24 hr. after which the samples were aired and incubated until the pathogens developed in the untreated samples which served as control. The results of this experiment are represented in FIG. 1.

Data set [4] has as its system Penicillium expansum. The description is as above. Format: cell-based. As to conditions: pentanal vapors about 18 ppm; vs untreated plates.
Excerpt: as §1

Data set [5] concerns Alternaria alternata. The data set is described as above. Format: cell-based. The following applies: pentanal vapors about 18 ppm; vs untreated plates.
Excerpt: as §1

For data set [6], the system named is Penicillium expansum spores. The experiment in a line: spores incubated on PDA plates, then exposed to pentanal vapors for 24 hr. Format: cell-based. As to the method: The effect of incubation period (hours) of Penicillium expansum spores on PDA plates followed by exposure to pentanal vapors (1.8 ppm, or 18 ppm) for 24 hr was examined.
The subject of data set [7] is Penicillium expansum spores. The experiment in a line: effect of different volatiles on viability of spores (CFU). Format: cell-based. The following applies: 0.9, 1.8 or 18 μL/L. On the procedure: FIGS. 4A-4B are bar graphs representing antifungal activity of different VOCs. FIG. 4A represents the effect of Butyl acetate (B) Hexyl acetate (H), Isoamyl acetate (I), Trans-2-Hexanal (T), and Pentanal (P) and Control (C) at the concentrations of 1.8 μL/L or 18 μL/L on Penicillium expansum spores (CFU). Different letters represent significant differences between treatments (p<0.05). A-C-1.8 μL/L, a-c-18 μL/L 1.8. FIG. 4B represents the effect of different volatiles Hexyl acetate (H), Trans-2-Hexanal (T), Pentanal (P), Hexanal (He) and Control (C) at the concentrations of 0.9 μL/L, 1.8 μL/L or 18 μL/L on Penicillium expansum spores (CFU). Different letters represent significant differences between treatments (p<0.05). A-C-1.8 μL/L, a-c-18 μL/L 1.8.
The inventors additionally examined the effect of different volatiles on the viability of Penicillium expansum spores. The volatiles tested were: Butyl acetate, Hexyl acetate, Isoamyl acetate, […] and they were compared to Pentanal at two different concentrations (1.8 μL/L or 18 μL/L). Furthermore, the inventors examined lower concentration (0.9 μL/L) for the following VOCs hexanal, trans-hexenal, and hexyl acetate on Penicillium expansum spores (CFU).

Data set [8] can be described thus: pentanal release rate into the ambient air from compositions. Format: physicochemical. As to conditions: release of 50% of the initial pentanal amount into the ambient air. An excerpt: The inventors further calculated pentanal release rate into the ambient air from various compositions of the invention and compared the release rate to neat pentanal (liquid), as a negative control. Table 1 presents the time period required for release of 50% of the initial pentanal amount.

The subject of data set [9] is Penicillium expansum and/or Botrytis cinerea. The experiment in a line: storage shelf-life of inoculated fruit and vegetables exposed to pentanal vapors. Format: in vivo. As to conditions: strawberries. The source says:
Furthermore, the inventors tested the storage shelf-life of various inoculated fruit and vegetables species, such as: apples, pears, strawberries, lichi, cucumbers, citrus fruits, grapes under similar storage conditions upon exposure thereof to pentanal vapors. The fruits have been inoculated with Penicillium expansum and/or Botrytis cinerea spores and exposed to pentanal vapors at a concentration ranging between 30 and 100 ppm during the cold storage. […] The exact preservative effective amount of pentanal vapors varies dependent on the specific fruit specie, for example strawberries require higher concentration of pentanal, about 80-100 ppm.

Data set [10] deals with Botrytis cinerea. The experiment in a line: rot development on inoculated pears after cold storage. As to conditions: pentanal vapors 18 ppm; 2 months of cold storage (0° C.). Format: in vivo. As to the method:
(§2) FIGS. 3A-3B are bar graphs representing the development of rots (in mm) on pears that were inoculated with Penicillium expansum (3A) and Botrytis cinera (3B) spores. Pears were inoculated with different concentrations of Penicillium expansum spores: 10^3 spores (A); 10^4 spores (B); 10^5 spores (C). The diameter of rots (in mm) was assessed after 2 months of cold storage (at 0° C.). The graphs represent untreated pears versus pears treated by pentanal vapors (18 ppm).
(§3) The decay was measured after 2 months of cold storage (0° C.).

For data set [11], the system named is Penicillium expansum. Described as above. Format: in vivo. As to conditions: pentanal vapors 18 ppm; 10^3-10^5 spores; 2 months of cold storage (0° C.). As to the method:
as §2, §3

Take `CCCCC=O` [Pentanal]: the “decay of treated fruits compared to untreated fruits” value in [1] is given as “prevention pathogen related decay (spoilage)”. For the same molecule, the “damage to mycelium, conidiophore and spores (electron microscope)” value in data set [2] is reported as “physical damage”. Further, the “fungal growth in petri dish” value in data set [3], in [4] and in data set [5] was “completely prevented fungal growth” each time. Also, the “fungal colonies 6 days after exposure” value in data set [6] (pentanal vapors 1.8 ppm for 24 hr) and in data set [6] (pentanal vapors 18 ppm for 24 hr) was “no fungal colonies were detected” throughout. Besides, in data set [7], the “anti-fungal activity (CFU) compared to other VOCs” value was “significantly enhanced anti-fungal activity”. The “Time (min) until 50% release” value in [8] is listed as 5 min. For the same molecule, the “shelf-life of inoculated fruits and vegetables vs non-treated controls” value in [9] (pentanal vapors 30 to 100 ppm during cold storage, apples, pears, lichi, cucumbers, citrus fruits, grapes) is “significantly prolong the shelf-life”. Further, the “preservative effective amount of pentanal vapors” value in data set [9] is recorded as 80-100 ppm. Further, the “decay development in inoculated pears” value in data set [10] and in data set [11] was “significantly delayed decay development” throughout.

The values above are taken from patent US20250194593A1, “PESTICIDAL COMPOSITIONS COMPRISING PENTANAL AND USES THEREOF” (MIGAL GALILEE RESEARCH INSTITUTE LTD., priority 2022, published 2025).
